“Also recorded” adds a separate entry of the source. Square brackets hold non-standard residues; d marks the D form. Ends that are not written are not given here. Cit = NC(=O)NCCC[C@H](N)C(=O)O
What was measured:
PhTET3 = target: T1, PhTET3 (Pyrococcus horikoshii, UniProt O59485); test: Aminopeptidase cleavage during dynamic sequencing with PhTET3; type: biochemical, P. horikoshii
T1 construct: His tag (inferred: purified as the recognizers, on Ni-NTA); made in house; host or cells: E. coli BL21(DE3)
T1 sequence (O59485 1-354): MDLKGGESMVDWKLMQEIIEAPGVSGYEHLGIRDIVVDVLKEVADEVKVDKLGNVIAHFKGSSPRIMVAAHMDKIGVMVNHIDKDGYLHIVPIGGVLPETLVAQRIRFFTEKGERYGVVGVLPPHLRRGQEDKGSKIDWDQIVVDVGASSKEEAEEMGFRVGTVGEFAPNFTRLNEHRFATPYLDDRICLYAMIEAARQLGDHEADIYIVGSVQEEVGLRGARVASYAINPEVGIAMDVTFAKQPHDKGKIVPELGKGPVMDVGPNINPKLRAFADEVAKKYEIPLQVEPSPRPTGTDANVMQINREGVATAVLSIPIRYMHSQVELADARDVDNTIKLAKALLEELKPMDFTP
Excerpt: The collected traces consisted of regions of distinct pulsing, which were referred to as recognition segments (RSs), separated by regions lacking recognition pulsing (non-recognition segments, NRSs). Analysis software was developed to automatically identify pulsing regions and transition points within traces (Methods). Traces began with recognition of phenylalanine with a median PD of 2.36 s (FIG. 2D), in agreement with the PD observed for FAA in recognition-only assays. This pattern terminated after aminopeptidase addition (on average 11 min after addition), and was followed by the ordered appearance of two RSs with median PDs of 0.25 s and 0.49 s (FIG. 2D), corresponding to the short and medium PDs obtained in YAA and WAA recognition-only assays.
(§1) A second chip check was then performed. […] Data was recorded for 15 min.

PS610 = test: Dynamic single-molecule sequencing, recognition by PS610; type: binding, A. tumefaciens; settings: for RS mean PD, recognition of N-terminal phenylalanine: lysine or acetylated lysine downstream
Protocol: The semiconductor chip was placed in the sequencing device and a chip check was performed to test electronic circuit function and to optimize laser coupling alignment. The chip was then removed from the device socket and the chip was washed twice with 50 μL of 70% isopropanol, followed by four washes with 30 μL of wash buffer (50 mM MOPS pH 8.0, 60 mM potassium acetate, 50 mM glucose, 20 mM magnesium acetate, and surfactant mix) through a flow cell attached to the chip. A second chip check was then performed. […] The chip was then washed six times with wash buffer, followed by addition of an imaging solution (wash buffer with 5 mM Trolox and an oxygen scavenging system). The laser was unblocked and the occupancy percentage (target 10-30%, Poisson distributed) was recorded by acquiring a photobleaching signal from a fluorophore attached to the peptide complex during 5 min of laser illumination. […] The laser was then blocked briefly and aminopeptidases were added to the sequencing reaction via the flow cell and mixed thoroughly (final concentration 2-8 μM PhTET2 and/or 20-80 μM PhTET3, as indicated according to the experiment). The laser was then unblocked, and data was recorded for 10 hours. For all runs, 30 μL of mineral oil was added to fluid reservoirs at each port of the flow cell to prevent evaporation during the run.
(§2) The measured signal on-chip comprises various noise components, the most dominant one being due to fluorescent emissions from diffusing recognizers in the reaction chamber. The pulse caller algorithm for a given reaction chamber starts by estimating the statistical properties of this background noise component. Once an estimate within certain error bounds has been established, the algorithm works in an online fashion observing new frames of data as they are generated. At each point in time, the algorithm maintains state indicating whether the signal is due to the background component only or a pulse from a recognizer-NAA interaction is being observed. The state transition from background to pulse is triggered using an edge detection test where the shift in signal is expected to be significant with respect to the background component's statistical distribution. The state transition from pulse to background is triggered when a small window of the most recent frames of the signal appears to conform to the background component's distribution again. The algorithm maintains an updated model of the background component as new background frames are observed. This provides robustness against drift in the signal intensity together with a feedback control loop that maintains a stable optical coupling of the laser into the chip based on any such detected drift. As detected pulses can be due to true recognizer-to-dipeptide interaction events as well as other occasional transient noise spikes, a downstream filter layer is employed to test the significance of pulse events based on their duration, intensity, and noise patterns within the context of the full timeline of the run and the entire dataset of reaction chambers.
Initial regions are determined by performing a sliding window calculation of pulse rate along the time dimension of a series of pulses. Regions with a mean pulse rate >1 pulse/min are then subdivided according to a greedy bisection approach. Here, the pulses on the left and right of each potential split are assessed for statistically significant deviation in any of four separate pulse properties—intensity, bin ratio, pulse duration, and interpulse duration—using a Mann-Whitney U Test. To define RSs, the split point with the lowest p-value for any of the four properties is used to sub-divide the region and the process continues until no regions remain with a candidate split point with p-value <10^−5 in any comparison. In this manner, transitions from one RS to the next in a region of continuous pulsing are determined a priori on the basis of changes in fluorescence properties of pulsing kinetics.

PS961 [1] = test: Dynamic single-molecule sequencing, recognition by PS961; type: binding, Planctomycetes; settings: for RS mean PD, recognition of N-terminal leucine: tyrosine or phosphotyrosine at position 2
PS961, sequence (as listed by the source): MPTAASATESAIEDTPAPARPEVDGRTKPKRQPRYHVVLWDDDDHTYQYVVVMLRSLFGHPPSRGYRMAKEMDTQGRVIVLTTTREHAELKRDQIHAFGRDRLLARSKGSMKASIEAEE
Protocol: The semiconductor chip was placed in the sequencing device and a chip check was performed to test electronic circuit function and to optimize laser coupling alignment. The chip was then removed from the device socket and the chip was washed twice with 50 μL of 70% isopropanol, followed by four washes with 30 μL of wash buffer (50 mM MOPS pH 8.0, 60 mM potassium acetate, 50 mM glucose, 20 mM magnesium acetate, and surfactant mix) through a flow cell attached to the chip. A second chip check was then performed. The laser was then blocked via an integrated software-controlled shutter, peptide complex was added to a final concentration of 1-10 nM and mixed thoroughly, and the chip was incubated for 15 min. The chip was then washed six times with wash buffer, followed by addition of an imaging solution (wash buffer with 5 mM Trolox and an oxygen scavenging system). The laser was unblocked and the occupancy percentage (target 10-30%, Poisson distributed) was recorded by acquiring a photobleaching signal from a fluorophore attached to the peptide complex during 5 min of laser illumination. For NAA recognition-only assays, after peptide loading, labeled recognizer was added to a final concentration of 50 nM PS610, 100 nM PS691, or 250 nM PS961 (as indicated according to the experiment), and data was recorded for 10 hours. For dynamic sequencing assays, after peptide loading, a mixture of labeled recognizers was added to obtain final concentrations of 50 nM PS610, 100 nM PS691, and 250 nM PS961. Data was recorded for 15 min. The laser was then blocked briefly and aminopeptidases were added to the sequencing reaction via the flow cell and mixed thoroughly (final concentration 2-8 μM PhTET2 and/or 20-80 μM PhTET3, as indicated according to the experiment). The laser was then unblocked, and data was recorded for 10 hours. For all runs, 30 μL of mineral oil was added to fluid reservoirs at each port of the flow cell to prevent evaporation during the run.
as §2
Initial regions are determined by performing a sliding window calculation of pulse rate along the time dimension of a series of pulses. Regions with a mean pulse rate >1 pulse/min are then subdivided according to a greedy bisection approach.

PS961 [2] = test: NAA recognition-only single-molecule assay on chip with PS961; type: binding, Planctomycetes; settings: 250 nM PS961
Excerpt: To expand the set of recognizable NAAs, N-end rule pathway proteins were investigated as a source of additional recognizers. In a comprehensive screen of diverse ClpS family proteins, a group of ClpS proteins from the bacterial phylum Planctomycetes with native binding to N-terminal leucine, isoleucine, and valine was discovered. […] The median PD of binding to peptides with N-terminal LAA, IAA, and VAA was 1.21, 0.28, and 0.21 s, respectively, in agreement with bulk characterization (FIG. 7C).
as §1
The resulting regions are called recognition segments (RSs).

PS621 = target: T2, PS621 (Kluyveromyces lactis, UniProt O60014, E174T/N105S/N176F/R116K/S153T/V146T); test: Dynamic single-molecule sequencing, recognition by PS621; type: binding; settings: citrulline at position 2
T2 construct: PS621; […]
T2 sequence (O60014 other isoform, or with tags, fused parts or gaps N105S/R116K/V146T/S153T/E174T/N176F): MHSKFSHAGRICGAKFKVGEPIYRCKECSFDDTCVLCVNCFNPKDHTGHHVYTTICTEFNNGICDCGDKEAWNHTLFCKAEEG

PS1223 = test: Dynamic single-molecule sequencing, recognition by PS1223; type: binding
PS1223, sequence (as listed by the source): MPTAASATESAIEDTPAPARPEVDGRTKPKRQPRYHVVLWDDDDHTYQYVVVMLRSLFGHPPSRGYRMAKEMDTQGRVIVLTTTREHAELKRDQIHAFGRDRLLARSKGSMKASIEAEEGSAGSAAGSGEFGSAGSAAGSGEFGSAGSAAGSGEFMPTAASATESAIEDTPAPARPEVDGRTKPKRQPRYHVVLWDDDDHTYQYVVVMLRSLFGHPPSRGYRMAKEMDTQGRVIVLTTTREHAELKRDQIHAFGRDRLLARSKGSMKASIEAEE
Protocol: (§3) Sequencing reactions using the recognizers PS610 (FYW), PS1220 (R), and PS1223 (LIV) were performed separately for the QP706 and QP1073 peptide fragments. Each recognizer was labeled with a unique dye and/or unique number of dyes. A scatter plot of bin ratio v. pulse duration is shown for the QP706 peptide fragment in FIG. 18A and for the QP1073 peptide fragment in FIG. 18B. In the plot of FIG. 18A, three clusters corresponding to FLE, LEQ, and RFL segments are visible. […] In the plot of FIG. 18B, two clusters corresponding to FLE and LEQ segments are visible, but there is no cluster corresponding to RFL.
In this example, sequencing reactions were conducted for 4 pairs of unmodified and citrullinated peptides: QP1028 & QP1029, QP1030 & QP1031, QP1032 & QP1033, and QP707 & QP789. […] For the QP1028 & QP1029 and QP1030 & QP1031 pairs, sequencing reactions were conducted using the PS610 (FYW) recognizer. For the QP1032 & QP1033 and QP707 & QP789 pairs, sequencing reactions were conducted using the PS1223 (LIV) recognizer.

PS1165 = target: T3, PS1165; test: Dynamic single-molecule sequencing, recognition by PS1165; type: binding; settings: lysine or acetylated lysine downstream
T3 construct: PS1165; 511
T3 sequence (Q13490 with tags, fused parts or gaps): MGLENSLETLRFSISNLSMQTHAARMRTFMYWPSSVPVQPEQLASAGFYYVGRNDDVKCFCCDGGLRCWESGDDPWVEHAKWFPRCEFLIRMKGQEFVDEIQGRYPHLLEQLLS
Protocol: Sequencing reactions using the recognizers PS691 (R), PS610 (FYW), PS961 (LIV), and PS1165 (A) were performed separately for the peptides RLYFKAYPDDD (SEQ ID NO: 825) and RLK{acetyl}FIAYPDDD (SEQ ID NO: 826) (where K{acetyl} is an acetylated lysine). Recognition of the N-terminal phenylalanine and alanine residues preceding lysine or acetyl-lysine by PS610 and PS1165, respectively, was observed, with distinct pulse durations depending on whether the peptide contained lysine (F=1.4 s, A=1.3 s; FIG. 16A) or acetylated lysine (F=1.8 s, A=2.2 s; FIG. 16B). Recognition of N-terminal phenylalanine occurred with RS mean PD of 1.4 s for FAK and 1.8 s for FAK{acetyl }. Recognition of N-terminal alanine occurred with RS mean PD of 1.3 s for AK and 2.2 s for AK{acetyl}.

PS691 = settings: tyrosine or phosphotyrosine at position 3
Protocol: The semiconductor chip was placed in the sequencing device and a chip check was performed to test electronic circuit function and to optimize laser coupling alignment. The chip was then removed from the device socket and the chip was washed twice with 50 μL of 70% isopropanol, followed by four washes with 30 μL of wash buffer (50 mM MOPS pH 8.0, 60 mM potassium acetate, 50 mM glucose, 20 mM magnesium acetate, and surfactant mix) through a flow cell attached to the chip. A second chip check was then performed. […] The laser was unblocked and the occupancy percentage (target 10-30%, Poisson distributed) was recorded by acquiring a photobleaching signal from a fluorophore attached to the peptide complex during 5 min of laser illumination. For NAA recognition-only assays, after peptide loading, labeled recognizer was added to a final concentration of 50 nM PS610, 100 nM PS691, or 250 nM PS961 (as indicated according to the experiment), and data was recorded for 10 hours. […] Data was recorded for 15 min. […]
The measured signal on-chip comprises various noise components, the most dominant one being due to fluorescent emissions from diffusing recognizers in the reaction chamber. […] This provides robustness against drift in the signal intensity together with a feedback control loop that maintains a stable optical coupling of the laser into the chip based on any such detected drift. […]

PS1220 = target: T4, PS1220 (Kluyveromyces lactis, UniProt O60014, E169T/E174T/I162E/N105S/N176F/R116K/S153T/V146L); test: Dynamic single-molecule sequencing, recognition by PS1220; type: binding; settings: vimentin peptide fragments
T4 construct: PS1220; 566
T4 sequence (O60014 with tags, fused parts or gaps N105S/R116K/V146L/S153T/I162E/E169T/E174T/N176F): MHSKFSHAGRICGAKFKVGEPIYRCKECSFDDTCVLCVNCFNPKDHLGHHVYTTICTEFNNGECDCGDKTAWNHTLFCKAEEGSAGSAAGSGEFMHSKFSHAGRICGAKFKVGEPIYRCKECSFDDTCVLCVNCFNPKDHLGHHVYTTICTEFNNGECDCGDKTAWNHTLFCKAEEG
Protocol: as §3
Results from additional sequencing reactions performed using the recognizers PS610 (FYW), PS1220 (R), and PS1223 (LIV) and the QP706 and QP1073 peptide fragments are shown in FIGS. 19A-19D and 20A-20D. Traces from the QP706 reactions are shown in FIGS. 19A-19B, and corresponding scatter plots of intensity v. bin ratio are shown in FIGS. 19C-19D. […] Traces from the QP1073 reactions are shown in FIGS. 20A-20B, and the corresponding scatter plots of intensity v. bin ratio are shown in FIGS. 20C-20D.

## FAAWAAYAA [FAAWAAYAAAADDD]
PhTET3
  Termination of phenylalanine recognition pattern after aminopeptidase addition (average): 11 min
PS610; PS610, PhTET3 added after 15 minutes
  Median PD, recognition of phenylalanine (first RS): 2.36 s
PS610; PS610 with PhTET3
  Median PD, first RS appearing after phenylalanine: 0.25 s
  Median PD, second RS appearing after phenylalanine: 0.49 s

## IAA: peptide with N-terminal IAA; in b185 the N-terminal IAA state of LAQFASIAAYASDDD (not fully specified (C-terminus); also: C-terminal azidolysine conjugated to DNA-streptavidin linker)
PS961 [1]; peptide LAQFASIAAYASDDD, PS610 and PS961, PhTET2 and PhTET3
  Median PD: 0.25 s
PS961 [2]
  Median PD of binding: 0.28 s

## LCitLAFAYPDDDK (L[Cit]LAFAYPDDDK) [QP789]
PS621
  N-terminal arginine recognition by PS621: eliminated
PS961 [1]; arginine or citrulline at position 2
  Median PD of recognition of N-terminal leucine by PS961: 0.78 s
PS1223; recognizer PS1223, recognition of the N-terminal amino acid
  Pulse Width: 0.92 s

## RLK{acetyl}FIAYPDDD (RLK(Ac)FIAYPDDD-NH2; also: C-terminal azidolysine (general statement for all synthetic peptides)) [FAK{acetyl }, peptide containing acetylated lysine]
PS1165
  RS mean PD, recognition of N-terminal alanine: 2.2 s
PS610
  RS mean PD, recognition of N-terminal phenylalanine: 1.8 s

## RLYFIAYPDDD
PS961 [1]
  RS mean PD, recognition of N-terminal leucine: 2.45 s
PS610
  Recognition of Y or pY by PS610 between L and F: Y recognition
PS691
  RS mean PD, recognition of N-terminal arginine: 0.9 s

## RLYFKAYPDDD (FAK) [peptide containing lysine]
PS1165
  RS mean PD, recognition of N-terminal alanine: 1.3 s
PS610
  RS mean PD, recognition of N-terminal phenylalanine: 1.4 s

## RLpYFIAYPDDD
PS961 [1]
  RS mean PD, recognition of N-terminal leucine: 3.4 s
PS610
  Recognition of Y or pY by PS610 between L and F: not recognized
PS691
  RS mean PD, recognition of N-terminal arginine: 0.45 s

## VCitFLEQQNK (V[Cit]FLEQQNK) [QP1073, citrullinated peptide fragment of vimentin]
PS1220
  Recognition of arginine / citrulline residue by PS1220: did not recognize; also recorded: does not recognize

## VRFLEQQNK [QP706, peptide fragment of vimentin]
PS610; vimentin peptide fragments
  Recognition of phenylalanine (F) residue by PS610: recognized; also recorded: recognition
PS1223; vimentin peptide fragments
  Recognition of leucine (L) residue by PS1223: recognized; also recorded: recognition
PS1220
  Recognition of arginine / citrulline residue by PS1220: recognized; also recorded: recognition

— patent publication US20230213527A1, “COMPOSITIONS AND METHODS FOR POLYPEPTIDE ANALYSIS” (Quantum-Si Incorporated, priority 2021, published 2023)
